# Where a name gives a salt, the structure may show the parent alone.
# How the values were obtained:
# [1] = molecular target: T1, FLT3 (Homo sapiens, UniProt P36888); assay: Radiometric HotSpot kinase assay, FLT3; format: biochemical; conditions: ATP 50 μM; peptide substrate 5 μM
# T1 construct: purchased Reaction Biology Corp. (Malvern, PA, USA)
# Description: (§1) Kinase IC50 values were determined by Reaction Biology Corp. (Malvern, PA, USA) in the Radiometric HotSpot™ Assay using recombinantly expressed kinase enzymes. Compound (I) was tested in a 10-dose IC50 curve in duplicate. Enzymes were tested at the Km [ATP] for each enzyme using the Reaction Biology binning structure. Kinase reactions were initiated by the addition of protein or peptide substrate and [γ-^33P]-adenosine triphosphate (ATP). Phosphorylated substrates were captured by spotting of the reaction mix on filter membranes, and enzymatic activity was quantified by liquid scintillation counting. Substrates and ATP concentrations are as follows: • FLT3: Peptide substrate, [EAIYAAPFAKKK], 5 μM: ATP 50 μM • FLT3-ITD (internal tandem duplication): Peptide substrate, [EAIYAAPFAKKK], 20 μM: ATP, 30 μM • FLT3 (D835Y): Peptide substrate, [EAIYAAPFAKKK], 5 μM: ATP 20 μM • TAK1: Casein, 1 mg/mL: ATP, 20 μM
# [2] = molecular target: FLT3-ITD (internal tandem duplication) (Homo sapiens, UniProt P36888); assay: Radiometric HotSpot kinase assay, FLT3-ITD; format: biochemical; conditions: ATP 30 μM; peptide substrate 20 μM
# Description: as §1
# [3] = molecular target: T2, FLT3 (D835Y) (Homo sapiens, UniProt P36888, D835Y); assay: Radiometric HotSpot kinase assay, FLT3 (D835Y); format: biochemical; conditions: ATP 20 μM; peptide substrate 5 μM
# T2 construct: purchased Reaction Biology Corp. (Malvern, PA, USA)
# Description: as §1
# [4] = system: SLP-76 Ser376 phosphorylation; assay: Phospho-SLP-76 (Ser376) sandwich ELISA in anti-CD3 stimulated Jurkat E6.1 cells; format: cell-based; conditions: Homo sapiens, 3 hours pretreatment, anti-CD3 (OKT3) 5 μg/mL 15 minutes
# Description: Jurkat E6.1 cells were starved overnight in RPMI-1640 medium (Invitrogen) without fetal bovine serum (FBS). Starved cells (2×10^6 per sample in 1 mL) were pretreated with Compound (I) tartrate for 3 hours and then stimulated with 5 μg/mL anti-CD3 antibody (clone OKT3) for 15 minutes. Cells were immediately lysed in cell lysis buffer plus protease and phosphatase inhibitors, and then assayed for SLP-76 Ser376 phosphorylation with the PathScan Phospho-SLP-76 (Ser376) Sandwich ELISA Kit according to the kit instructions (Cell Signaling Technology, Inc.). Duplicate data points for each concentration were collected (Molecular Devices M5). Raw absorbance (A=450 nm) values were background subtracted and then individual values were averaged for each Compound (I) tartrate concentration. The cellular EC50 was determined using a simple one-site dose-response curve fitting model (XLfit4, IDBS).
# [5] = system: FLT3-ITD-expressing 32D cells; assay: Growth inhibition, 32D transfectants; format: cell-based; conditions: 32D transfectant FLT3-ITD, without cytokines
# Description: (§2) Cell lines were obtained from American Type Culture Collection (ATCC) and maintained according to the supplier's instructions, and from Dr. Mark Minden (Princess Margaret Cancer Centre, Toronto, Canada). Short tandem repeat (STR) profiling was used to verify authenticity of the cell lines. Peripheral blood from healthy human donors was obtained from the Hematology Malignancy Tissue Bank at the University Health Network. Peripheral blood mononuclear cells (PBMC) were prepared from the blood by density gradient centrifugation using Ficoll-Paque PLUS by manufacturer's instructions (GE Healthcare Life Sciences). […] Compound (I) tartrate was prepared as a 10 mM stock solution in 100% DMSO. The stock solution was diluted with RPMI-1640 (Invitrogen) containing 10% FBS (fetal bovine serum) such that the final concentrations ranged from 300 fM to 300 μM. Aliquots (20 μL) from each concentration were overlaid to 180 μL of pre-seeded cells to achieve final concentrations of 30 fM to 30 μM. After 3 days, cell growth in each well was assessed by Alamar Blue assay reagent (Invitrogen). Raw fluorescence (λEM=590 nm) values were adjusted by subtracting the average of the baseline readings from untreated cells assessed one day after cell seeding. Relative cell growth was calculated by comparing to DMSO-treated cells. […]
# [6] = system: Wild-type FLT3-expressing 32D cells; assay: Growth inhibition, 32D transfectants; format: cell-based; conditions: 32D transfectant wild-type FLT3, 50 ng/ml human FLT3 ligand
# Description: as §2
# [7] = system: cell surface FLT3-ITD; assay: Flow cytometry, cell surface FLT3-ITD in MV-4-11 cells; format: cell-based, human; conditions: 100 nM, 4 hours
# Description: MV-4-11 cells were treated with 100 nM Compound (I) tartrate or DMSO control for 4 hours at 37° C. and 5% CO2 and stained with PE-FLT3 (Beckman Coulter, Cat. IM2234U) or an isotype control antibody and analyzed on a BD LSRFortessa II flow cytometry analyzer. Data were analyzed using FlowJo software and representative data are shown. […] Compound (I) tartrate treatment increases the cell surface expression of FLT3-ITD in MV-4-11 cells.
# [8] = system: cell surface FLT3-ITD; assay: Flow cytometry, cell surface FLT3 in primary human AML cells; format: cell-based; conditions: FLT3-ITD positive primary AML cells, viable CD14− blasts, 48 and 72 hours, dose-dependent
# Description: (§3) Patient samples were obtained from Dr. Mark Minden (Princess Margaret Cancer Centre, Toronto, Ontario, Canada). FLT3-ITD positive AML cells were treated with the indicated concentrations of Compound (I) for 48 and 72 hours at 37° C. and 5% CO2 and stained with APC-CD45, PECy7-CD38, APC/Fire 750-CD33, PerCP-CD14, PE-FLT3 (Beckman Coulter, Cat. IM2234U), PE/Dazzle 594-CD117 (BioLegend, Cat. #313226) or isotype control antibodies and analyzed on a BD LSRFortessa II flow cytometry analyzer. Data were analyzed using FlowJo software and representative data are shown. Compound (I) treatment increases the cell surface expression of FLT3 and c-KIT in a dose-dependent manner in viable CD14^− AML blast cells. Similar results were obtained in additional FLT3-ITD positive primary AML samples (data not shown).
# [9] = system: c-KIT (CD117); assay: Flow cytometry, cell surface c-KIT in primary human AML cells; format: cell-based; conditions: FLT3-ITD positive primary AML cells, viable CD14− blasts, 48 and 72 hours, dose-dependent
# Description: as §3
compound,measurement,setting,value
"CN1CCN(c2ccc3nc(-c4c(N)c5ccsc5[nH]c4=O)[nH]c3c2)CC1 [Compound (I) tartrate, 4-amino-5-(6-(4-methylpiperazin-1-yl)-1H-benzo[d]imidazol-2-yl)thieno[2,3-b]pyridin-6(7H)-one]",IC50,[1],0.043 nM
same,IC50,[2],0.13 nM
same,IC50,[3],0.023 nM
same,EC50,[4],24 nM
same,IC50,[5],6.3 nM
same,IC50,[6],1650 nM
same,cell surface expression of FLT3-ITD,[7],increases
same,cell surface expression of FLT3,[8],increases
same,cell surface expression of c-KIT (CD117),[9],increases

# Reference: patent US20250049787A1, “TREATMENT FOR ACUTE MYELOID LEUKEMIA OR LYMPHOMA” (UNIVERSITY HEALTH NETWORK, priority 2021, published 2025)
